Assay results: ChEMBL document CHEMBL1134932, “Bridged bicyclic vasopressin receptor antagonists with V(2)-selective or dual V(1a)/V(2) activity” (Bioorg Med Chem Lett, 2002)
Each block holds one compound with its values, some of them ahead of it.

Tests used:
Rattus norvegicus [1] = experiment: The Urine osmolality in 9 male Sprague-Dawley rats after 4 hrs at a dose of 0.3 mg/kg by oral route; format: functional
Rattus norvegicus [2] = experiment: The diuretic effect in 10 male Sprague-Dawley rats after 4 hrs at a dose of 3 mg/kg by oral route; format: functional, Urine
Vasopressin V1a receptor [3] = target: T1, Vasopressin V1a receptor (Homo sapiens, UniProt P37288); experiment: Inhibition of [3H]Arg-vasopressin binding to recombinant human vasopressin V1a receptor at 0.1 uM
Target sequence in this assay (P37288 whole entry, looked up): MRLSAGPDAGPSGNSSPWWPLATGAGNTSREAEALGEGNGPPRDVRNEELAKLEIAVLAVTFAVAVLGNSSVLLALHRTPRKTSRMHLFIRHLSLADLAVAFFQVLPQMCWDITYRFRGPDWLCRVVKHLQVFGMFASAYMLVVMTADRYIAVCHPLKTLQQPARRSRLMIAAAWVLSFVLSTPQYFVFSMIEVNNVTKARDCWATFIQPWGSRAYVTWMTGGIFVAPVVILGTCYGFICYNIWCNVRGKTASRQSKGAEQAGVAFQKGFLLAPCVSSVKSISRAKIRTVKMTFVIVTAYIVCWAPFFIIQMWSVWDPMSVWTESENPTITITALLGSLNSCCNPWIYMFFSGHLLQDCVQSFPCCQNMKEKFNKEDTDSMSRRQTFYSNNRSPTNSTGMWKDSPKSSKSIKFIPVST

[4] = Oral bioavailability in rat (mature male) (dose 30 mg/kg); format: ADME, organism-based; settings: in vivo
[5] = Half life tested in mature male rat at a dose of 30 mg/kg; format: ADME, organism-based; set-up: dose 30 mg/kg; settings: in vivo
Rattus norvegicus [6] = experiment: The diuretic effect in 10 male Sprague-Dawley rats after 4 hrs at a dose of 10 mg/kg by oral route; format: functional, Urine
Rattus norvegicus [7] = experiment: The Urine osmolality in 10 male Sprague-Dawley rats after 4 hrs at a dose of 3 mg/kg by oral route; format: functional
Rattus norvegicus [8] = experiment: The Urine osmolality in 10 male Sprague-Dawley rats after 4 hrs at a dose of 10 mg/kg by oral route; format: functional
Rattus norvegicus [9] = experiment: The diuretic effect in 10 male Sprague-Dawley rats after 4 hrs at a dose of 1 mg/kg by oral route; format: functional, Urine
Vasopressin V2 receptor [10] = target: T2, Vasopressin V2 receptor (Homo sapiens, UniProt P30518); experiment: Inhibition of AVP mediated activation of human vasopressin V2 receptor expressed in HEK293 cells; format: cell-based
[11] = The maximum plasma levels for the compounds were determined by LC-MS.; format: ADME, organism-based; settings: rat
Rattus norvegicus [12] = experiment: The clearance rate in mature male rat at a intravenous dose of 3 mg/kg; format: ADME, organism-based; set-up: dose 3 mg/kg, route intravenous; settings: in vivo
Rattus norvegicus [13] = experiment: The Urine osmolality in 10 male Sprague-Dawley rats after 4 hrs at a dose of 1 mg/kg by oral route; format: functional
Rattus norvegicus [14] = experiment: The diuretic effect in 9 male Sprague-Dawley rats after 4 hrs at a dose of 0.3 mg/kg by oral route; format: functional, Urine
Vasopressin V1a receptor [15] = target: T1, Vasopressin V1a receptor; experiment: Inhibition of [3H]Arg-vasopressin binding to recombinant human vasopressin V1a receptor
Target sequence in this assay (P37288 whole entry): as the sequence (P37288 whole entry, looked up) above

Vasopressin V2 receptor [16] = target: T2, Vasopressin V2 receptor; experiment: Inhibition of [3H]Arg-vasopressin binding to recombinant human vasopressin V2 receptor
Vasopressin V1a receptor [17] = target: T1, Vasopressin V1a receptor; experiment: Inhibition of AVP mediated activation of human vasopressin V1a receptor expressed in HEK293 cells; format: cell-based
Target sequence in this assay (P37288 whole entry): as the sequence (P37288 whole entry, looked up) above

Rattus norvegicus [18] = experiment: Effective dose for reversal of AVP-Induced Hypertension in pentobarbital-anesthetized male Long-Evans rats.; format: functional
Rattus norvegicus [19] = experiment: Excretion of Creatinine at a dose of 3 mg/kg in male Sprague-Dawley rats; format: functional
Rattus norvegicus [20] = experiment: Excretion of sodium at a dose of 1 mg/kg in male Sprague-Dawley rats; format: functional
Rattus norvegicus [21] = experiment: Excretion of Creatinine at a dose of 10 mg/kg in male Sprague-Dawley rats; format: functional
Rattus norvegicus [22] = experiment: Excretion of sodium at a dose of 10 mg/kg in male Sprague-Dawley rats; format: functional
Rattus norvegicus [23] = experiment: Excretion of potassium at a dose of 3 mg/kg in male Sprague-Dawley rats; format: functional
Rattus norvegicus [24] = experiment: Excretion of potassium at a dose of 10 mg/kg in male Sprague-Dawley rats; format: functional
Rattus norvegicus [25] = experiment: Excretion of sodium at a dose of 3 mg/kg in male Sprague-Dawley rats; format: functional
Rattus norvegicus [26] = experiment: Excretion of potassium at a dose of 1 mg/kg in male Sprague-Dawley rats; format: functional
Rattus norvegicus [27] = experiment: Excretion of Creatinine at a dose of 1 mg/kg in male Sprague-Dawley rats; format: functional
Cytochrome P450 2C9 = Cytochrome P450 2C9 (Homo sapiens, UniProt P11712); experiment: Inhibition of cytochrome P450 2C9; format: ADME
Chain of Cytochrome P450 2C9 (P11712 whole entry): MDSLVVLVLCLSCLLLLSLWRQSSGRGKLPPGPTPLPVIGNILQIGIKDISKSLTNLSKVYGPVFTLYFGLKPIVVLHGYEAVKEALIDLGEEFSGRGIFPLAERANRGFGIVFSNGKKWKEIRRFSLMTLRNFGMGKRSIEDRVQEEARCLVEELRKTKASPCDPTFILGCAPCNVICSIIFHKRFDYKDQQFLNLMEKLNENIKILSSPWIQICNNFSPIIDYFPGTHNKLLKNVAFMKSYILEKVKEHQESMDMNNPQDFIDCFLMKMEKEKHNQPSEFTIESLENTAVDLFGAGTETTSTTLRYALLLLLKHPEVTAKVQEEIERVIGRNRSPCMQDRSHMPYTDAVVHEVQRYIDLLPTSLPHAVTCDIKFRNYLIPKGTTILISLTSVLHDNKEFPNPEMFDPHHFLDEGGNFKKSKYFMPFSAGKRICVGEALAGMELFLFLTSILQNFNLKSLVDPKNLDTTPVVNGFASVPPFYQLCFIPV

T2 sequence (P30518 whole entry): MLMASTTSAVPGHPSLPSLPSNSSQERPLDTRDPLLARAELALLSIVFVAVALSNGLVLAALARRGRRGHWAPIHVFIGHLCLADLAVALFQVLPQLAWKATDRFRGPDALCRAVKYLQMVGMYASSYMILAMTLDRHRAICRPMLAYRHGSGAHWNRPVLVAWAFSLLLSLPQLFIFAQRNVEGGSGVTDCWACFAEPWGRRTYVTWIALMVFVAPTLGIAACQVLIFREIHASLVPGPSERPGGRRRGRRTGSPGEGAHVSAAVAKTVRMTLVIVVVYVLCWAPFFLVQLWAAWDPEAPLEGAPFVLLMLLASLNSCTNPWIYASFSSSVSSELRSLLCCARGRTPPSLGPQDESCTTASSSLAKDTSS

SMILES: O=C(Nc1ccc(C(=O)N2C[C@H]3C4CCC(C4)N3Cc3ccccc32)c(Cl)c1)c1ccccc1-c1ccccc1 (some centres undefined)
Urine osmolality (Rattus norvegicus [1]): 408 mOsmol kg-1
Urine volume (Rattus norvegicus [2]): 9.4 mL
inhibition (Vasopressin V1a receptor [3]): 7%
bioavailability [4]: 10%
half-life [5]: 2.5 h
Urine volume (Rattus norvegicus [6]): 19.5 mL
Urine osmolality (Rattus norvegicus [7]): 238 mOsmol kg-1
Urine osmolality (Rattus norvegicus [8]): 172 mOsmol kg-1
Urine volume (Rattus norvegicus [9]): 3.4 mL
Ki (Vasopressin V2 receptor [10]): 30 nM
Cmax [11]: 230 nM
Clearance (Rattus norvegicus [12]): 3.3 mg/kg/µM/h
Urine osmolality (Rattus norvegicus [13]): 303 mOsmol kg-1
Urine volume (Rattus norvegicus [14]): 1.4 mL

SMILES: Cc1ccc(-c2ccccc2C(=O)Nc2ccc(C(=O)N3C[C@@H]4C5CCC(C5)N4Cc4cc(Cl)ccc43)c(Cl)c2)cc1 (some centres undefined)
IC50 (Vasopressin V1a receptor [15]): 35 nM
IC50 (Vasopressin V2 receptor [16]): 30 nM

SMILES: O=C(Nc1ccc(C(=O)N2C[C@@H]3C4CCC(C4)N3Cc3cc(Cl)ccc32)cc1)c1ccccc1Cl (some centres undefined)
IC50 (Vasopressin V1a receptor [15]): 5 nM
Ki (Vasopressin V1a receptor [17]): 130 nM
Ki (Vasopressin V2 receptor [10]): 32 nM
IC50 (Vasopressin V2 receptor [16]): 10 nM

IC50 (Vasopressin V1a receptor [15]): 35 nM
Ki (Vasopressin V1a receptor [17]): 620 nM
Ki (Vasopressin V2 receptor [10]): 520 nM
IC50 (Vasopressin V2 receptor [16]): 13 nM
SMILES: O=C(Nc1ccc(C(=O)N2C[C@@H]3C4CCC(CC4)N3Cc3cc(Cl)ccc32)cc1)c1ccccc1Cl

SMILES: O=C(Nc1ccc(C(=O)N2C[C@@H]3C4CCC(C4)N3Cc3ccccc32)c(Cl)c1)c1ccccc1-c1ccccc1 (some centres undefined)
Urine osmolality (Rattus norvegicus [1]): 444 mOsmol kg-1
Urine volume (Rattus norvegicus [2]): 15.1 mL
bioavailability [4]: 14%
half-life [5]: 5 h
Urine volume (Rattus norvegicus [6]): 29.9 mL
Urine osmolality (Rattus norvegicus [7]): 180 mOsmol kg-1
Ki (Vasopressin V1a receptor [17]): 130 nM
ED50 (Rattus norvegicus [18]): 0.217 mg/kg
Urine osmolality (Rattus norvegicus [8]): 138 mOsmol kg-1
Urine volume (Rattus norvegicus [9]): 6 mL
Ki (Vasopressin V2 receptor [10]): 9 nM
Cmax [11]: 650 nM
Clearance (Rattus norvegicus [12]): 1.2 mg/kg/µM/h
Urine osmolality (Rattus norvegicus [13]): 299 mOsmol kg-1
Urine volume (Rattus norvegicus [14]): 2.5 mL

IC50 (Vasopressin V1a receptor [15]): 150 nM
Ki (Vasopressin V2 receptor [10]): 90 nM
IC50 (Vasopressin V2 receptor [16]): 5 nM
SMILES: Cc1ccc(F)cc1C(=O)Nc1ccc(C(=O)N2Cc3cccn3Cc3ccccc32)c(Cl)c1 [LIXIVAPTAN]

SMILES: O=C(Nc1ccc(C(=O)N2C[C@@H]3C4CCC(C4)N3Cc3cc(Cl)ccc32)cc1)c1ccccc1F (some centres undefined)
IC50 (Vasopressin V1a receptor [15]): 68 nM
Ki (Vasopressin V1a receptor [17]): 2600 nM
Ki (Vasopressin V2 receptor [10]): 180 nM
IC50 (Vasopressin V2 receptor [16]): 26 nM

IC50 (Vasopressin V1a receptor [15]): 4 nM
Ki (Vasopressin V1a receptor [17]): 40 nM
Ki (Vasopressin V2 receptor [10]): 9 nM
IC50 (Vasopressin V2 receptor [16]): 7 nM
SMILES: O=C(Nc1ccc(C(=O)N2C[C@@H]3C4CCC(C4)N3Cc3cc(Cl)ccc32)cc1)c1ccccc1C(F)(F)F (some centres undefined)
ED50 (Rattus norvegicus [18]): 0.38 mg/kg

SMILES: Cc1ccc(-c2ccccc2C(=O)Nc2ccc(C(=O)N3C[C@@H]4C5CCC(C5)N4Cc4cc(Cl)ccc43)cc2)cc1 (some centres undefined)
Urine volume (Rattus norvegicus [2]): 5.8 mL
bioavailability [4]: 7%
Excretion (Rattus norvegicus [19]): 16.2 mg/dL
half-life [5]: 2.5 h
Excretion (Rattus norvegicus [20]): 0.07 m equiv 4hr-1
Excretion (Rattus norvegicus [21]): 7.7 mg/dL
Excretion (Rattus norvegicus [22]): 0.52 m equiv 4hr-1
Excretion (Rattus norvegicus [23]): 0.34 m equiv 4hr-1
Urine volume (Rattus norvegicus [6]): 17.8 mL
Urine osmolality (Rattus norvegicus [7]): 226 mOsmol kg-1
Ki (Vasopressin V1a receptor [17]): 23 nM
ED50 (Rattus norvegicus [18]): 0.0074 mg/kg
Excretion (Rattus norvegicus [24]): 0.64 m equiv 4hr-1
Excretion (Rattus norvegicus [25]): 0.16 m equiv 4hr-1
Urine osmolality (Rattus norvegicus [8]): 159 mOsmol kg-1
Urine volume (Rattus norvegicus [9]): 2.9 mL
Ki (Vasopressin V2 receptor [10]): 13 nM
Cmax [11]: 320 nM
Clearance (Rattus norvegicus [12]): 2.1 mg/kg/µM/h
Urine osmolality (Rattus norvegicus [13]): 387 mOsmol kg-1
Excretion (Rattus norvegicus [26]): 0.3 m equiv 4hr-1
Excretion (Rattus norvegicus [27]): 31.4 mg/dL
IC50 (Cytochrome P450 2C9): 7400 nM

inhibition (Vasopressin V1a receptor [3]): 30%
IC50 (Vasopressin V2 receptor [16]): 4 nM
SMILES: O=C(Nc1ccc(C(=O)N2CC3C4CCC(CC4)N3Cc3ccccc32)c(Cl)c1)c1ccccc1-c1ccccc1 (centres undefined)

IC50 (Vasopressin V1a receptor [15]): ~100 nM
SMILES: O=C(Nc1ccc(C(=O)N2CC3C4CCC(CC4)N3Cc3ccccc32)cc1)c1ccccc1-c1ccccc1 (centres undefined)

inhibition (Vasopressin V1a receptor [3]): 15%
IC50 (Vasopressin V2 receptor [16]): 19 nM
SMILES: Cc1cc(F)cc(C(=O)Nc2ccc(C(=O)N3C[C@@H]4C5CCC(CC5)N4Cc4ccccc43)c(Cl)c2)c1
